This note sets out measurements from ChEMBL document CHEMBL1145145, “Design and synthesis of o-trifluoromethylbiphenyl substituted 2-amino-nicotinonitriles as inhibitors of farnesyltransferase” (Bioorg Med Chem Lett, 2005).

For assay [1], the target named is Protein farnesyltransferase (Bos taurus, UniProt P29702+P49355). Briefly: Inhibition of Bovine farnesyl transferase. Format: protein-complex assay.
Assay [2] deals with Geranylgeranyl transferase type I (Bos taurus, UniProt P29702+Q5EAD5). Briefly: Inhibition of Bovine geranylgeranyl transferase. Format: protein-complex assay.
The target of assay [3] is Protein farnesyltransferase (Mus musculus, UniProt Q61239+Q8K2I1). The experiment in a line: Effective concentration against H-ras processing in transformed NIH3T3 cells. The format is functional, cell-based.

SMILES strings stand for the structures.

What is called IC50 is the concentration at which inhibition is half-maximal. What is called EC50 is the concentration that produces a half-maximal response. In the case of `Cn1cncc1C(OCc1ccc(F)c(C(F)(F)F)c1)c1ccc(C#N)c(-c2ccccc2C(F)(F)F)c1` (stereo not given), the IC50 in assay [1] stood at 4.1 nM; in assay [2], 120 nM. Besides, the EC50 in assay [3] was found to be 100 nM.
In assay [1], `Cc1ccccc1-c1cc(C(OCc2cccc3cccnc23)c2cncn2C)ccc1C#N` (stereo not given) came in with an IC50 of 59 nM.
`Cn1cncc1C(OCc1ccc(C#N)c(N2CCN(CCO)CC2)n1)c1ccc(C#N)c(-c2ccccc2C(F)(F)F)c1` (stereo not given): the IC50 stood at 1.3 nM in assay [1] and 2000 nM in assay [2]. In addition, the EC50 in assay [3] was 30 nM.
The compound `Cc1ccccc1-c1cc(C(OCc2ccc(S(C)(=O)=O)cc2)c2cncn2C)ccc1C#N` (stereo not given) yielded an IC50 in assay [1] of 38 nM.
The same measure, in the same setting: to `Cc1ccccc1-c1cc(C(OCc2c(Cl)cccc2Cl)c2cncn2C)ccc1C#N` (stereo not given) belongs 81 nM.
On the same count and under the same terms, to `Cc1ccccc1-c1cc(C(OCc2ccccc2[N+](=O)[O-])c2cncn2C)ccc1C#N` (stereo not given) belongs 33 nM; to `Cc1ccccc1-c1cc(C(OCc2cccc(I)c2)c2cncn2C)ccc1C#N` (stereo not given), 20 nM.
`Cn1cncc1C(OCc1ccc(C#N)c(NCC2CCOC2)n1)c1ccc(C#N)c(-c2ccccc2C(F)(F)F)c1` (stereo not given): the IC50 in assay [1] worked out at 7.7 nM; in assay [2], 2200 nM. In assay [3], this compound displayed an EC50 of 201 nM.
The compound `Cn1cncc1C(OCc1ccc(C#N)cc1)c1ccc(C#N)c(-c2ccccc2C(=O)O)c1` (stereo not given) came in with an IC50 in assay [1] of 14 nM. In addition, in assay [3], the EC50 was more than 1000 nM.
Take `Cc1cccc(-c2cc(C(OCc3ccc(C#N)cc3)c3cncn3C)ccc2C#N)c1C` (stereo not given): the figures for the IC50 in assay [1] and in assay [2] were 2.1 nM and 130 nM, respectively. In assay [3], this compound had a 50% effective concentration (EC50) of more than 1000 nM.
On the same counts, the results for `Cn1cncc1C(OCc1ccc(C#N)c(N2CCCC(O)C2)n1)c1ccc(C#N)c(-c2ccccc2C(F)(F)F)c1` (stereo not given) are 1.3 nM, 1400 nM and 13 nM.
Consider `Cc1ccccc1-c1cc(C(OCc2ccc(C(C)(C)C)cc2)c2cncn2C)ccc1C#N` (stereo not given), for which the midpoint of inhibition in assay [1], the IC50, lay at 87 nM.
`Cn1cncc1C(OCc1ccc(C#N)c(NCc2cccc(F)c2)n1)c1ccc(C#N)c(-c2ccccc2C(F)(F)F)c1` (stereo not given): the IC50 came to 10 nM in assay [1] and 750 nM in assay [2].
In the case of `Cc1ccccc1-c1cc(C(OCc2ccc(I)cc2)c2cncn2C)ccc1C#N` (stereo not given), it took 13 nM to reach half-maximal inhibition in assay [1] (IC50).
In turn, `Cn1cncc1C(OCc1ccc(C#N)cc1)c1ccc(C#N)c(-c2cccc3ccccc23)c1` (stereo not given) displayed an EC50 in assay [3] of 110 nM.
In turn, `COc1ccc(COC(c2ccc(C#N)c(-c3ccccc3C)c2)c2cncn2C)cc1` (stereo not given) showed an IC50 in assay [1] of 59 nM.
The same measure, in the same setting: then `Cc1ccccc1-c1cc(C(OCc2ccc(-c3ccccc3)cc2)c2cncn2C)ccc1C#N` (stereo not given), with 13 nM.
On to `Cn1cncc1C(OCc1ccc(C#N)c(N2CCC[C@@H]2C(=O)O)n1)c1ccc(C#N)c(-c2ccccc2C(F)(F)F)c1` (stereo not given in full), for which the IC50 in assay [1] came out at 3.6 nM; in assay [2], 680 nM. This compound also showed an EC50 in assay [3] of 210 nM.
`Cc1ccc(COC(c2ccc(C#N)c(-c3ccccc3C)c2)c2cncn2C)cc1` (stereo not given) had a half-inhibitory concentration (IC50) in assay [1] of 54 nM. This lies in the double-digit nanomolar range.
Same read-out and setting: to `Cc1ccccc1COC(c1ccc(C#N)c(-c2ccccc2C)c1)c1cncn1C` (stereo not given) belongs 54 nM; to `Cc1ccccc1-c1cc(C(OCc2ccc(Br)cc2)c2cncn2C)ccc1C#N` (stereo not given), 12 nM.
Still for that read-out and setting: then `Cc1ccccc1-c1cc(C(OCc2ccc(C(F)(F)F)cc2)c2cncn2C)ccc1C#N` (stereo not given), with 12 nM.
The same measure, in the same setting: then `Cc1ccccc1-c1cc(C(OCc2cccc(OC(F)(F)F)c2)c2cncn2C)ccc1C#N` (stereo not given), with 8.3 nM.
For the compound `CC(=O)NC1CCN(c2nc(COC(c3ccc(C#N)c(-c4ccccc4C(F)(F)F)c3)c3cncn3C)ccc2C#N)C1` (stereo not given), the IC50 in assay [1] stood at 1.7 nM; in assay [2] it was 1600 nM. Further, in assay [3], the EC50 is 330 nM.
On to `Cc1ccccc1-c1cc(C(OCc2ccccc2C#N)c2cncn2C)ccc1C#N` (stereo not given), for which the IC50 in assay [1] came to 62 nM.
As to `Cn1cncc1C(OCc1ccc(C#N)cn1)c1ccc(C#N)c(-c2ccccc2C(F)(F)F)c1` (stereo not given), the IC50 amounted to 2.7 nM in assay [1] and 1500 nM in assay [2]. The compound further showed an EC50 in assay [3] of 90 nM.
Compound `Cc1ccccc1-c1cc(C(OCc2ccc(OC(F)(F)F)cc2)c2cncn2C)ccc1C#N` (stereo not given) came in with an IC50 in assay [1] of 16 nM.
The same measure, in the same setting: then `Cc1ccccc1-c1cc(C(OCc2cnc(Cl)c(Cl)c2)c2cncn2C)ccc1C#N` (stereo not given), with 15 nM.
As to `Cn1cncc1C(OCc1ccc(C#N)cc1)c1ccc(C#N)c(-c2ccccc2C=O)c1` (stereo not given), the IC50 in assay [1] worked out at 1.9 nM. The EC50 in assay [3] was 110 nM.
Take `Cc1ccccc1-c1cc(C(OCc2cccc3ccccc23)c2cncn2C)ccc1C#N` (stereo not given): the IC50 in assay [1] turned out to be 17 nM.
For the compound `Cn1cncc1C(OCc1ccc(C#N)cc1)c1ccc(C#N)c(-c2cc3ccccc3s2)c1` (stereo not given), inhibition in assay [1] was half-maximal at 160 nM (IC50).
The compound `Cn1cncc1C(OCc1ccc(C#N)cc1)c1ccc(C#N)c(-c2ccccc2C(F)(F)F)c1` (stereo not given) returned an IC50 in assay [2] of 310 nM. In assay [3], this compound yielded an EC50 of 85 nM.
`Cc1cccc(COC(c2ccc(C#N)c(-c3ccccc3C)c2)c2cncn2C)c1` (stereo not given) displayed an IC50 in assay [1] of 61 nM.
Regarding `Cc1ccccc1-c1cc(C(OCc2ccc(C#N)cc2)c2cncn2C)ccc1C#N` (stereo in doubt; 4q), in assay [1], half-maximal inhibition (IC50) was put at 4 nM. This IC50 is about 15-fold lower than that of the compound before.
As a reminder, the inhibition is the share of the control response that was lost under treatment. Lower therefore signals little suppression. Compound `Cc1ccccc1-c1cc(C(OCc2ccccc2Br)c2cncn2C)ccc1C#N` (stereo not given) registered an inhibition in assay [1] of 65%.
Take `Cc1ccccc1-c1cc(C(OCc2cccc(C(F)(F)F)c2)c2cncn2C)ccc1C#N` (stereo not given): half-maximal inhibition in assay [1] (IC50) was put at 8.1 nM.
On the same count and under the same terms, then `Cc1ccccc1-c1cc(C(OCc2cccc(Br)c2)c2cncn2C)ccc1C#N` (stereo not given), with 13 nM; and `Cc1ccccc1-c1cc(C(OCc2ccccc2Cl)c2cncn2C)ccc1C#N` (stereo not given), with 48 nM.
Still for that read-out and setting: then `COC(=O)c1ccc(COC(c2ccc(C#N)c(-c3ccccc3C)c2)c2cncn2C)cc1` (stereo not given), with 6.1 nM; and `COC(=O)c1cccc(COC(c2ccc(C#N)c(-c3ccccc3C)c2)c2cncn2C)c1` (stereo not given), with 61 nM; and `Cc1ccccc1-c1cc(C(OCc2ccc([N+](=O)[O-])cc2)c2cncn2C)ccc1C#N` (stereo not given), with 7.5 nM.
On the same count and under the same terms, to `Cc1ccccc1-c1cc(C(OCc2ccc(F)cc2)c2cncn2C)ccc1C#N` (stereo not given) belongs 32 nM; to `Cc1ccccc1-c1cc(C(OCc2csc(-c3ccc(Cl)cc3)n2)c2cncn2C)ccc1C#N` (stereo not given), 29 nM.
As to `Cc1ccccc1-c1cc(C(OCc2ccc(C(C)C)cc2)c2cncn2C)ccc1C#N` (stereo not given), inhibition in assay [1] was half-maximal at 51 nM (IC50).
As for `Cc1ccccc1-c1cc(C(OCc2cccc(F)c2)c2cncn2C)ccc1C#N` (stereo not given), half-maximal inhibition in assay [1] (IC50) required 38 nM.
On to `Cn1cncc1C(OCc1ccc(Cl)c(Cl)c1)c1ccc(C#N)c(-c2ccccc2C(F)(F)F)c1` (stereo not given), for which the IC50 in assay [1] is 1.7 nM; in assay [2], 72 nM.
`Cn1cncc1C(OCc1ccc(C#N)cc1)c1ccc(C#N)c(-c2ccc(Cl)cc2Cl)c1` (stereo not given): inhibition in assay [1] was half-maximal at 47 nM (IC50). The compound further came in with an EC50 in assay [3] of more than 1000 nM.
For `Cc1ccccc1-c1cc(C(OCc2ccc(Cl)cc2)c2cncn2C)ccc1C#N` (stereo not given), in assay [1], the IC50 is 11 nM.
The same measure, in the same setting: to `Cc1ccccc1-c1cc(C(OCc2cccc(Cl)c2)c2cncn2C)ccc1C#N` (stereo not given) belongs 19 nM.
Take `Cc1ccccc1-c1cc(C(OCc2cc(Cl)cc(Cl)c2)c2cncn2C)ccc1C#N` (stereo not given): in assay [1], the IC50 was determined as 19 nM.
Still for that read-out and setting: then `Cc1ccccc1-c1cc(C(OCc2cc(Cl)nc(Cl)c2)c2cncn2C)ccc1C#N` (stereo not given), with 13 nM; and `Cc1ccccc1-c1cc(C(OCc2ccccc2F)c2cncn2C)ccc1C#N` (stereo not given), with 70 nM; and `Cc1ccccc1-c1cc(C(OCc2ccc(Cl)c(Cl)c2)c2cncn2C)ccc1C#N` (stereo not given), with 27 nM.
